Test results: ChEMBL document CHEMBL1909046, “DrugMatrix in vitro pharmacology data”

Molecular target: T1, Adenosine receptor A1 (Homo sapiens, UniProt P30542);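 also: radioligand binding assay at the adenosine A1 receptor, with DPCPX serving as the labelled ligand; in other assays of this panel Not Active means under 50% inhibition at 10 µM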
T1 sequence (P30542 whole entry): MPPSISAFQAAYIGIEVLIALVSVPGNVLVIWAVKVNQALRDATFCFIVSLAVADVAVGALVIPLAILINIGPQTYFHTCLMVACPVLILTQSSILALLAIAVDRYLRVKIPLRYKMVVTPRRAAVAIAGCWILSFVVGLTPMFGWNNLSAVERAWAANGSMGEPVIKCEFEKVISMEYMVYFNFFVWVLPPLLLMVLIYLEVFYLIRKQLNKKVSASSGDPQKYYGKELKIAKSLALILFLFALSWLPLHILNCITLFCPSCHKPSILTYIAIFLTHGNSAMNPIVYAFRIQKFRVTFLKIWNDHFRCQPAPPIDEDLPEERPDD
Assay type: cell membranes, CHO, Membrane
Conditions: cho

Structure (SMILES) | IC50
C[S+](C)[O-] [DIMETHYL SULFOXIDE] | Not Active
CC1=NN(c2ccccc2)C(=O)C1 [EDARAVONE] | Not Active
C[C@]12CC[C@@H]3c4ccc(O)cc4CC[C@H]3[C@@H]1C[C@@H](O)[C@@H]2O [ESTRIOL] | Not Active
C#C[C@]1(O)CC[C@H]2[C@@H]3CCC4=CC(=O)CC[C@]4(C)[C@H]3CC[C@@]21C [ETHISTERONE] | Not Active
CC(O)(P(=O)(O)O)P(=O)(O)O [ETIDRONIC ACID] | Not Active
CN1CCN(c2c(F)cc3c(=O)c(C(=O)O)cn(CCF)c3c2F)CC1 [FLEROXACIN] | Not Active
O=c1[nH]c(=O)n([C@H]2C[C@H](O)[C@@H](CO)O2)cc1F [FLOXURIDINE] | Not Active
COC(=O)Nc1nc2cc(C(=O)c3ccc(F)cc3)ccc2[nH]1 [FLUBENDAZOLE] | Not Active
CC(=O)OCC(=O)[C@@]1(O)CC[C@H]2[C@@H]3CCC4=CC(=O)CC[C@]4(C)[C@@]3(F)[C@@H](O)C[C@@]21C [FLUDROCORTISONE ACETATE] | Not Active
CCOC(=O)c1ncn2c1CN(C)C(=O)c1cc(F)ccc1-2 [FLUMAZENIL] | Not Active
O=C(O)P(=O)(O)O [FOSCARNET] | Not Active
Cc1ccc(C)c(OCCCC(C)(C)C(=O)O)c1 [GEMFIBROZIL] | Not Active
Nc1cc(-c2ccncc2)c[nH]c1=O [INAMRINONE] | Not Active

Same assay, conditions: read-out: IC50

Structure (SMILES) | IC50
O=c1c(-c2ccc(O)cc2)coc2cc(O)cc(O)c12 [GENISTEIN] | 19.9 µM

Same assay, conditions: read-out: Ki

Structure (SMILES) | Ki
O=c1c(-c2ccc(O)cc2)coc2cc(O)cc(O)c12 [GENISTEIN] | 11.6 µM

Molecular target: 5-hydroxytryptamine receptor 2B (Homo sapiens, UniProt P41595); also: in other assays of this panel Not Active means under 50% inhibition at 10 µM
Sequence (P41595 whole entry): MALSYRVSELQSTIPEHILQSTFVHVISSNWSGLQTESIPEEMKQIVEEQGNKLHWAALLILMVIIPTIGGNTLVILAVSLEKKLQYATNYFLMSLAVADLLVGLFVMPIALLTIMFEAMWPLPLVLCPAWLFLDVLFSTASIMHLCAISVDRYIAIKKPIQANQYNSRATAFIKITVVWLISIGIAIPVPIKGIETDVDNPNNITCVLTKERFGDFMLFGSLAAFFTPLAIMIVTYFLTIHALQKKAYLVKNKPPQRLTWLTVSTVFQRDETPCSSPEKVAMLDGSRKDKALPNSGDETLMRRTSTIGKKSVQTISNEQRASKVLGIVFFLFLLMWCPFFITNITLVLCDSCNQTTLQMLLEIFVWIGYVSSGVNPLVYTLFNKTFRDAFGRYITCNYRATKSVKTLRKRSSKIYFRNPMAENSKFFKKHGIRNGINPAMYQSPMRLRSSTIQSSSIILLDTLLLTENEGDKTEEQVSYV
Assay type: cell membranes, CHO-K1, Membrane
Conditions: cho-k1

Structure (SMILES) | IC50
C[S+](C)[O-] [DIMETHYL SULFOXIDE] | Not Active
CC1=NN(c2ccccc2)C(=O)C1 [EDARAVONE] | Not Active
C[C@]12CC[C@@H]3c4ccc(O)cc4CC[C@H]3[C@@H]1C[C@@H](O)[C@@H]2O [ESTRIOL] | Not Active
C#C[C@]1(O)CC[C@H]2[C@@H]3CCC4=CC(=O)CC[C@]4(C)[C@H]3CC[C@@]21C [ETHISTERONE] | Not Active
CC(O)(P(=O)(O)O)P(=O)(O)O [ETIDRONIC ACID] | Not Active
CN1CCN(c2c(F)cc3c(=O)c(C(=O)O)cn(CCF)c3c2F)CC1 [FLEROXACIN] | Not Active
O=c1[nH]c(=O)n([C@H]2C[C@H](O)[C@@H](CO)O2)cc1F [FLOXURIDINE] | Not Active
COC(=O)Nc1nc2cc(C(=O)c3ccc(F)cc3)ccc2[nH]1 [FLUBENDAZOLE] | Not Active
CC(=O)OCC(=O)[C@@]1(O)CC[C@H]2[C@@H]3CCC4=CC(=O)CC[C@]4(C)[C@@]3(F)[C@@H](O)C[C@@]21C [FLUDROCORTISONE ACETATE] | Not Active
CCOC(=O)c1ncn2c1CN(C)C(=O)c1cc(F)ccc1-2 [FLUMAZENIL] | Not Active
O=C(O)P(=O)(O)O [FOSCARNET] | Not Active
Cc1ccc(C)c(OCCCC(C)(C)C(=O)O)c1 [GEMFIBROZIL] | Not Active
O=c1c(-c2ccc(O)cc2)coc2cc(O)cc(O)c12 [GENISTEIN] | Not Active
Nc1cc(-c2ccncc2)c[nH]c1=O [INAMRINONE] | Not Active

Tested on: not listed separately
Assay: DRUGMATRIX: Calcium Channel Type L, Phenylalkylamine radioligand binding (ligand: [3H] (-)-Desmethoxyverapamil (D-888))
Assay type: cell membranes, Rattus norvegicus, Wistar, Brain, Membrane
Conditions: Not Active = under 50% inhibition at 10 µM

Structure (SMILES) | IC50 | Ki
C[S+](C)[O-] [DIMETHYL SULFOXIDE] | Not Active | Not Active
CC1=NN(c2ccccc2)C(=O)C1 [EDARAVONE] | Not Active | Not Active
C[C@]12CC[C@@H]3c4ccc(O)cc4CC[C@H]3[C@@H]1C[C@@H](O)[C@@H]2O [ESTRIOL] | Not Active | Not Active
C#C[C@]1(O)CC[C@H]2[C@@H]3CCC4=CC(=O)CC[C@]4(C)[C@H]3CC[C@@]21C [ETHISTERONE] | Not Active | Not Active
CC(O)(P(=O)(O)O)P(=O)(O)O [ETIDRONIC ACID] | Not Active | Not Active
CN1CCN(c2c(F)cc3c(=O)c(C(=O)O)cn(CCF)c3c2F)CC1 [FLEROXACIN] | Not Active | Not Active
O=c1[nH]c(=O)n([C@H]2C[C@H](O)[C@@H](CO)O2)cc1F [FLOXURIDINE] | Not Active | Not Active
COC(=O)Nc1nc2cc(C(=O)c3ccc(F)cc3)ccc2[nH]1 [FLUBENDAZOLE] | Not Active | Not Active
CC(=O)OCC(=O)[C@@]1(O)CC[C@H]2[C@@H]3CCC4=CC(=O)CC[C@]4(C)[C@@]3(F)[C@@H](O)C[C@@]21C [FLUDROCORTISONE ACETATE] | Not Active | Not Active
CCOC(=O)c1ncn2c1CN(C)C(=O)c1cc(F)ccc1-2 [FLUMAZENIL] | Not Active | Not Active
O=C(O)P(=O)(O)O [FOSCARNET] | Not Active | Not Active
Cc1ccc(C)c(OCCCC(C)(C)C(=O)O)c1 [GEMFIBROZIL] | Not Active | Not Active
O=c1c(-c2ccc(O)cc2)coc2cc(O)cc(O)c12 [GENISTEIN] | Not Active | Not Active
Nc1cc(-c2ccncc2)c[nH]c1=O [INAMRINONE] | Not Active | Not Active

Molecular target: Cytochrome P450 2C9 (Homo sapiens, UniProt P11712); also: in other assays of this panel Not Active means under 50% inhibition at 10 µM
Sequence (P11712 whole entry): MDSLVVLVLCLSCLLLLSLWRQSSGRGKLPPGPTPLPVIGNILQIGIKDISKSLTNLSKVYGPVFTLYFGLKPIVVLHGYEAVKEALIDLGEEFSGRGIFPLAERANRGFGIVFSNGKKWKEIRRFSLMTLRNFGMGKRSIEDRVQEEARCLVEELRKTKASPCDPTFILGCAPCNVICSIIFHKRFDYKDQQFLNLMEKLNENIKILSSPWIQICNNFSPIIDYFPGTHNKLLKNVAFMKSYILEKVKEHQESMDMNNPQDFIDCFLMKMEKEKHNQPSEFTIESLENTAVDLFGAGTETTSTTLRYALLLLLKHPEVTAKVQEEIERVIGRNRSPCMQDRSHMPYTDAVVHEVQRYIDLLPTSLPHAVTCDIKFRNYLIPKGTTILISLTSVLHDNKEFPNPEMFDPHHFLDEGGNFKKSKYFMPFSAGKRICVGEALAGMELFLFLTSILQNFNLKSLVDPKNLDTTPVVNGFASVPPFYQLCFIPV
Conditions: bti-tn-5b1-4

Structure (SMILES) | IC50 | Ki
C[S+](C)[O-] [DIMETHYL SULFOXIDE] | Not Active | Not Active
CC1=NN(c2ccccc2)C(=O)C1 [EDARAVONE] | Not Active | Not Active
C[C@]12CC[C@@H]3c4ccc(O)cc4CC[C@H]3[C@@H]1C[C@@H](O)[C@@H]2O [ESTRIOL] | Not Active | Not Active
C#C[C@]1(O)CC[C@H]2[C@@H]3CCC4=CC(=O)CC[C@]4(C)[C@H]3CC[C@@]21C [ETHISTERONE] | Not Active | Not Active
CC(O)(P(=O)(O)O)P(=O)(O)O [ETIDRONIC ACID] | Not Active | Not Active
CN1CCN(c2c(F)cc3c(=O)c(C(=O)O)cn(CCF)c3c2F)CC1 [FLEROXACIN] | Not Active | Not Active
O=c1[nH]c(=O)n([C@H]2C[C@H](O)[C@@H](CO)O2)cc1F [FLOXURIDINE] | Not Active | Not Active
COC(=O)Nc1nc2cc(C(=O)c3ccc(F)cc3)ccc2[nH]1 [FLUBENDAZOLE] | Not Active | Not Active
CC(=O)OCC(=O)[C@@]1(O)CC[C@H]2[C@@H]3CCC4=CC(=O)CC[C@]4(C)[C@@]3(F)[C@@H](O)C[C@@]21C [FLUDROCORTISONE ACETATE] | Not Active | Not Active
CCOC(=O)c1ncn2c1CN(C)C(=O)c1cc(F)ccc1-2 [FLUMAZENIL] | Not Active | Not Active
O=C(O)P(=O)(O)O [FOSCARNET] | Not Active | Not Active
Cc1ccc(C)c(OCCCC(C)(C)C(=O)O)c1 [GEMFIBROZIL] | Not Active | Not Active
O=c1c(-c2ccc(O)cc2)coc2cc(O)cc(O)c12 [GENISTEIN] | Not Active | Not Active
Nc1cc(-c2ccncc2)c[nH]c1=O [INAMRINONE] | Not Active | Not Active

Tested on: not listed separately
Assay: DRUGMATRIX: Nicotinic Acetylcholine radioligand binding (ligand: [125I] Epibatidine)
Assay type: cell membranes, Membrane
Conditions: imr-32; Not Active = under 50% inhibition at 10 µM

Structure (SMILES) | IC50 | Ki
C[S+](C)[O-] [DIMETHYL SULFOXIDE] | Not Active | Not Active
CC1=NN(c2ccccc2)C(=O)C1 [EDARAVONE] | Not Active | Not Active
C[C@]12CC[C@@H]3c4ccc(O)cc4CC[C@H]3[C@@H]1C[C@@H](O)[C@@H]2O [ESTRIOL] | Not Active | Not Active
C#C[C@]1(O)CC[C@H]2[C@@H]3CCC4=CC(=O)CC[C@]4(C)[C@H]3CC[C@@]21C [ETHISTERONE] | Not Active | Not Active
CC(O)(P(=O)(O)O)P(=O)(O)O [ETIDRONIC ACID] | Not Active | Not Active
CN1CCN(c2c(F)cc3c(=O)c(C(=O)O)cn(CCF)c3c2F)CC1 [FLEROXACIN] | Not Active | Not Active
O=c1[nH]c(=O)n([C@H]2C[C@H](O)[C@@H](CO)O2)cc1F [FLOXURIDINE] | Not Active | Not Active
COC(=O)Nc1nc2cc(C(=O)c3ccc(F)cc3)ccc2[nH]1 [FLUBENDAZOLE] | Not Active | Not Active
CC(=O)OCC(=O)[C@@]1(O)CC[C@H]2[C@@H]3CCC4=CC(=O)CC[C@]4(C)[C@@]3(F)[C@@H](O)C[C@@]21C [FLUDROCORTISONE ACETATE] | Not Active | Not Active
CCOC(=O)c1ncn2c1CN(C)C(=O)c1cc(F)ccc1-2 [FLUMAZENIL] | Not Active | Not Active
O=C(O)P(=O)(O)O [FOSCARNET] | Not Active | Not Active
Cc1ccc(C)c(OCCCC(C)(C)C(=O)O)c1 [GEMFIBROZIL] | Not Active | Not Active
O=c1c(-c2ccc(O)cc2)coc2cc(O)cc(O)c12 [GENISTEIN] | Not Active | Not Active
Nc1cc(-c2ccncc2)c[nH]c1=O [INAMRINONE] | Not Active | Not Active

Tested on: not listed separately
Assay: DRUGMATRIX: Sigma2 radioligand binding (ligand: [3H] Ifenprodil)
Assay type: cell membranes, Rattus norvegicus, Wistar, Brain, Membrane
Conditions: Not Active = under 50% inhibition at 10 µM

Structure (SMILES) | IC50 | Ki
C[S+](C)[O-] [DIMETHYL SULFOXIDE] | Not Active | Not Active
CC1=NN(c2ccccc2)C(=O)C1 [EDARAVONE] | Not Active | Not Active
C[C@]12CC[C@@H]3c4ccc(O)cc4CC[C@H]3[C@@H]1C[C@@H](O)[C@@H]2O [ESTRIOL] | Not Active | Not Active
C#C[C@]1(O)CC[C@H]2[C@@H]3CCC4=CC(=O)CC[C@]4(C)[C@H]3CC[C@@]21C [ETHISTERONE] | Not Active | Not Active
CC(O)(P(=O)(O)O)P(=O)(O)O [ETIDRONIC ACID] | Not Active | Not Active
CN1CCN(c2c(F)cc3c(=O)c(C(=O)O)cn(CCF)c3c2F)CC1 [FLEROXACIN] | Not Active | Not Active
O=c1[nH]c(=O)n([C@H]2C[C@H](O)[C@@H](CO)O2)cc1F [FLOXURIDINE] | Not Active | Not Active
COC(=O)Nc1nc2cc(C(=O)c3ccc(F)cc3)ccc2[nH]1 [FLUBENDAZOLE] | Not Active | Not Active
CC(=O)OCC(=O)[C@@]1(O)CC[C@H]2[C@@H]3CCC4=CC(=O)CC[C@]4(C)[C@@]3(F)[C@@H](O)C[C@@]21C [FLUDROCORTISONE ACETATE] | Not Active | Not Active
CCOC(=O)c1ncn2c1CN(C)C(=O)c1cc(F)ccc1-2 [FLUMAZENIL] | Not Active | Not Active
O=C(O)P(=O)(O)O [FOSCARNET] | Not Active | Not Active
Cc1ccc(C)c(OCCCC(C)(C)C(=O)O)c1 [GEMFIBROZIL] | Not Active | Not Active
O=c1c(-c2ccc(O)cc2)coc2cc(O)cc(O)c12 [GENISTEIN] | Not Active | Not Active
Nc1cc(-c2ccncc2)c[nH]c1=O [INAMRINONE] | Not Active | Not Active
